One experiment deals with Glutamate NMDA receptor. The experiment is described as follows: Inhibition of NMDA-evoked increase in intracellular calcium ion in rat cortical cells. Format: functional, cell-based.
The target in experiment [1] is Glutamate receptor ionotropic, NMDA 2B (Rattus norvegicus, UniProt Q00960). The experiment is described as follows: Displacement of [3H]Ro25-6981 from NR2B NMDA receptor in rat forebrain membrane. Format: cell membranes.
Experiment [2] addresses Glutamate NMDA receptor; GRIN1/GRIN2A (Homo sapiens) (UniProt Q05586+Q12879). Put plainly: Inhibition of NMDA-evoked current in EcR293 cells transfected with NR1/NR2A upto 10 uM by patch clamp method. The following applies: HEK293. Type of experiment: functional, cell-based.
Experiment [3] in a line: Inhibition of NMDA-evoked current in EcR293 cells transfected with NR1/NR2D upto 10 uM by patch clamp method. Type of experiment: functional, HEK293.
For another experiment, the system named is Mus musculus. The experiment is described as follows: Analgesic activity against formalin-induced persistent pain in orally dosed NMRI mouse assessed as decrease in licking time relative to control. The following applies: po. Format: functional.

Chain of Glutamate receptor ionotropic, NMDA 2B (Q00960 whole entry): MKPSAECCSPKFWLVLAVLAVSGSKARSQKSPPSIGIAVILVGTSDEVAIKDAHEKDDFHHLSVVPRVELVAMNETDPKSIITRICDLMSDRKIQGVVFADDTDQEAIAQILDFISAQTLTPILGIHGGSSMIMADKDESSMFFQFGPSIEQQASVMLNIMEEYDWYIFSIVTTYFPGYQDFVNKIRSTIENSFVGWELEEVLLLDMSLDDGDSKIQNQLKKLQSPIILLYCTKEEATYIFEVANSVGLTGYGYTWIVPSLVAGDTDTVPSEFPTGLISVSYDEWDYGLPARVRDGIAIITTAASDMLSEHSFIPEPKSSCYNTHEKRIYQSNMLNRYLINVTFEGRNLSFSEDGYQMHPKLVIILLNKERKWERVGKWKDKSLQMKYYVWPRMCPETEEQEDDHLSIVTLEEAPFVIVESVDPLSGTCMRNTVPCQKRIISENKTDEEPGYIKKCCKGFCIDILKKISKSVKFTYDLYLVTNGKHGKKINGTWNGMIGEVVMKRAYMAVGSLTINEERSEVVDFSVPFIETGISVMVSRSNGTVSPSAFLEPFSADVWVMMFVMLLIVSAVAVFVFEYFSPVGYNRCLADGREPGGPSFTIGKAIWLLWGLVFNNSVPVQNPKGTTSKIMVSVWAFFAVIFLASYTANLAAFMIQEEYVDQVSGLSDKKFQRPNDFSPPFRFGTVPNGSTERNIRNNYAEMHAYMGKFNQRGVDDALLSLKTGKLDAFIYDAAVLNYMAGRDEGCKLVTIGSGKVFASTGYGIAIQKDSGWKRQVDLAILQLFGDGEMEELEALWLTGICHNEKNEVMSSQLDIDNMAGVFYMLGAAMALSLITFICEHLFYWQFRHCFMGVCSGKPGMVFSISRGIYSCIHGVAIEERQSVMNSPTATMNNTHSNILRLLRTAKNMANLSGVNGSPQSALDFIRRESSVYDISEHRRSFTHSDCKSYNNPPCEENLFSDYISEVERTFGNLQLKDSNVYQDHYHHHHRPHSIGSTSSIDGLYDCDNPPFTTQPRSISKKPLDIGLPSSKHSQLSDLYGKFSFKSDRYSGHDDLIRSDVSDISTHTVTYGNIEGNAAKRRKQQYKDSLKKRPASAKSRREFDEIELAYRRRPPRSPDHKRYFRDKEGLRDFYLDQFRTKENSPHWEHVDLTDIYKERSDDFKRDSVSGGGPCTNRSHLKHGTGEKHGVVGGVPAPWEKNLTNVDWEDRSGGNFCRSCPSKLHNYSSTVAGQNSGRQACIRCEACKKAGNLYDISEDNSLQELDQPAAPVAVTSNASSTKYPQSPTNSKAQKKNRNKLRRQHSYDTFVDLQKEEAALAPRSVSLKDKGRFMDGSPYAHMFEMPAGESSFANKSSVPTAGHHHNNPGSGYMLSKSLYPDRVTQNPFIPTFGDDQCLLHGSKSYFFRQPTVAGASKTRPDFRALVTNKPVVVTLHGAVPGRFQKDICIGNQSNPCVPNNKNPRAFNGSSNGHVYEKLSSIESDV

As to `Cc1ccc(OC2CCN(C(=O)c3nc4ccc(O)cc4[nH]3)CC2)cc1`, the IC50 was found to be 1.1 nM at Glutamate NMDA receptor and 3 nM in experiment [1].

For `O=C(c1nc2ccc(O)cc2[nH]1)N1CCC(Cc2ccccc2)CC1`, the inhibition in experiment [2] was < 20%. The IC50 in experiment [1] is 4 nM. Further, in experiment [3], the Inhibition is <20%. Moreover, in the experiment on Mus musculus, the ED50 came out at 1.6 mg/kg.

As to `CS(=O)(=O)Nc1ccc2[nH]c(C(=O)N3CCC(Cc4ccccc4)CC3)nc2c1`, the IC50 worked out at 1.3 nM on Glutamate NMDA receptor and 3 nM in experiment [1].

For the compound `O=c1[nH]c2ccc([S+]([O-])CCN3CCC(Cc4ccc(F)cc4)CC3)cc2o1` (centres undefined) [BESONPRODIL], the IC50 was 6.6 nM at Glutamate NMDA receptor and 4 nM in experiment [1].

Consider `O=C(c1nc2ccc(O)cc2[nH]1)N1CCC(Oc2ccc(Cl)cc2)CC1`, for which the values for the IC50 (on Glutamate NMDA receptor; in experiment [1]) were 1.7 nM and 14 nM, respectively.

As for `Nc1ccc2[nH]c(C(=O)N3CCC(Cc4ccccc4)CC3)nc2c1`, the figures for the IC50 (at Glutamate NMDA receptor; in experiment [1]) were 40 nM and 143 nM, respectively.

With `Cc1ccc(CC2CCN(C(=O)c3nc4ccc(O)cc4[nH]3)CC2)cc1`, the IC50 on Glutamate NMDA receptor was determined as 8.7 nM; in experiment [1], 4.4 nM.

With `Cc1ccccc1CC1CCN(C(=O)c2nc3cc(O)ccc3[nH]2)CC1`, the results for the 50% inhibitory concentration (IC50) (at Glutamate NMDA receptor; in experiment [1]) were 12 nM and 8.4 nM, respectively.

On to `Cc1cccc(CC2CCN(C(=O)c3nc4ccc(O)cc4[nH]3)CC2)c1`, for which the figures for the IC50 (on Glutamate NMDA receptor; in experiment [1]) were 2.4 nM and 5 nM, respectively.

`COc1cccc(CC2CCN(C(=O)c3nc4ccc(O)cc4[nH]3)CC2)c1`: the IC50 came to 2.5 nM at Glutamate NMDA receptor and 3.2 nM in experiment [1].

In the case of `O=C(c1nc2ccc(O)cc2[nH]1)N1CCC(Cc2ccc(F)cc2)CC1`, the IC50 worked out at 1.2 nM on Glutamate NMDA receptor and 4 nM in experiment [1].

As for `O=C(c1nc2c(O)cccc2[nH]1)N1CCC(Cc2ccccc2)CC1`, the values for the IC50 (at Glutamate NMDA receptor; in experiment [1]) were 3 nM and 10 nM, respectively.

Regarding `C[C@@H](CN1CCC(Cc2ccccc2)CC1)[C@@H](O)c1ccc(O)cc1`, the IC50 at Glutamate NMDA receptor worked out at 159 nM; in experiment [1], 6 nM.

Consider `O=C(c1nc2ccc(O)cc2[nH]1)N1CCC(Cc2cccc(F)c2)CC1`, for which the figures for the IC50 (on Glutamate NMDA receptor; in experiment [1]) were 6 nM and 5.2 nM, respectively.

`CS(=O)(=O)Nc1ccc2nc(CN3CCC(Cc4ccccc4)CC3)[nH]c2c1`: the IC50 came out at 8.6 nM on Glutamate NMDA receptor and 3.5 nM in experiment [1].

`O=C(c1nc2ccc(O)cc2[nH]1)N1CCC(Oc2ccc(F)cc2)CC1`: the IC50 at Glutamate NMDA receptor was 2.9 nM; in experiment [1] it was 6 nM.

Source of the values: ChEMBL document CHEMBL1148684, “Benzimidazole-2-carboxamides as novel NR2B selective NMDA receptor antagonists” (Bioorg Med Chem Lett, 2006).
